Results from US20170239330A1, “FORMULATIONS FOR HISTATIN THERAPEUTICS” (RAPID PATHOGEN SCREENING, INC., priority 2014, published 2017).

Experiments:
[1] = test system: cultured ocular epithelial cells; settings: in vitro; cited from earlier work
[2] = Stability of ocular histatin formulation determined by mass spectroscopy; assay type: physicochemical; settings: 100 μg/mL in gel tears lubricating eye drop with 0.25% PEG in aqueous buffered borate salt solution
Method: In some embodiments, the ocular histatin formulation is stable both at room temperature (25° C.) and at 45° C. for at least 90 days.

Time formulation found stable, by mass spectroscopy ([2]; 25° C.)	Time formulation found stable, by mass spectroscopy ([2]; 45° C.)	Substance	Cytotoxicity to cultured ocular epithelial cells [1]
		Benzalkonium chloride	significant cytotoxicity
at least 505 days	at least 90 days	cyclo(DNLPETGGDSHEKRHHGYRRKFHEKHHSHREFPFYGDYGSNYLY) [cyclized histatin 1]	
